Columns and labels:
IKKε = IKKε (Homo sapiens (Human), UniProt Q14164); experiment: TR-FRET kinase assay, IKKε; assay type: biochemical; conditions: full length recombinant IKKε 0.3 nM, 2x Km ATP, 1 μM peptide, 240 min at 25° C.; geometric mean of minimum four determinations
Description: Biological Assay for TBK1 and IKKs:

TBK1 = TBK1 (Homo sapiens (Human), UniProt Q9UHD2); experiment: TR-FRET kinase assay, TBK1; conditions: read-out: TBK1-IC50; full length recombinant TBK1 2.5 nM, 2x Km ATP, 1 μM peptide, 240 min at 25° C.; geometric mean of minimum four determinations
Sequence of TBK1 (Q9UHD2 whole entry): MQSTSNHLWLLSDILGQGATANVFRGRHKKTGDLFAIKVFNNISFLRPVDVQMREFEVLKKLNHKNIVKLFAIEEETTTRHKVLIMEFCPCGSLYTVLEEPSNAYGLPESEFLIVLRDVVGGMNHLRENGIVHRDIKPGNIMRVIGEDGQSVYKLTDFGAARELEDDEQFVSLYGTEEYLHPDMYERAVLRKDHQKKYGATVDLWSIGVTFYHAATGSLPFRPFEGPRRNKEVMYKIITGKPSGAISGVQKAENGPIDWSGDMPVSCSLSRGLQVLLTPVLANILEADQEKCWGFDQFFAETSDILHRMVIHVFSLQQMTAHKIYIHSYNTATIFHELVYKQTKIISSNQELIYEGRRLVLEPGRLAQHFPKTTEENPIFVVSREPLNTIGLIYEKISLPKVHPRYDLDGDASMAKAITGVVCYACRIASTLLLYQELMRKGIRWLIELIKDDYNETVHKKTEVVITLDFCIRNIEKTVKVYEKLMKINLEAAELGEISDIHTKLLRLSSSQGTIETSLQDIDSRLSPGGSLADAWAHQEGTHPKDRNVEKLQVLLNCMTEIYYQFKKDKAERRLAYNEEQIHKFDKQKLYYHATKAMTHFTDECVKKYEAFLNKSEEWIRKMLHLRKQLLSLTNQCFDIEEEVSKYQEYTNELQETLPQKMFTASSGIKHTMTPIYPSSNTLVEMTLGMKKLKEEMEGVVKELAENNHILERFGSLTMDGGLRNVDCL

Sequence of IKKε (Q14164 whole entry): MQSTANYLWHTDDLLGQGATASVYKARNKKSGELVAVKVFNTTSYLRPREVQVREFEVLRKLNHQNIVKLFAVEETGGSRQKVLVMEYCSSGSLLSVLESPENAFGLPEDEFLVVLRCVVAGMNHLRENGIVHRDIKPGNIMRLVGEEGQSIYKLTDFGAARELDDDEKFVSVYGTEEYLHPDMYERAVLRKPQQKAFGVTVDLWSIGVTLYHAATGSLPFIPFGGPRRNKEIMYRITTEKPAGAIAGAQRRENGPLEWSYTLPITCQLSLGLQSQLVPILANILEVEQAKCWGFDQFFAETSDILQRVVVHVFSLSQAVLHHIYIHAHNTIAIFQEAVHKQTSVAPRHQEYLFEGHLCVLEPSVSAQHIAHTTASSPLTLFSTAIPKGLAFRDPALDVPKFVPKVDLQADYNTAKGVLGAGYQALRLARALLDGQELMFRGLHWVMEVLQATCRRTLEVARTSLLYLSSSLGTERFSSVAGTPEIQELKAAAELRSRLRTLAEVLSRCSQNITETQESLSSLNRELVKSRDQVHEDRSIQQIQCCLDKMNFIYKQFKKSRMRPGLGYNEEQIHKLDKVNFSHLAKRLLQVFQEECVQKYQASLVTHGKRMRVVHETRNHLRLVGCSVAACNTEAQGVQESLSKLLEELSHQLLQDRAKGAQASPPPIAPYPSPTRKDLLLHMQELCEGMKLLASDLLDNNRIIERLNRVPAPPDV

Row | Structure (SMILES) | IC50 (IKKε) [nM] | IC50 (TBK1) [nM]
1 | CC(O)C(=O)N1CC[C@@H](Oc2ccc(-c3ccnc4[nH]c(-c5ccc(N6CCOCC6)cc5)cc34)cc2C#N)C1 (stereo partly drawn) [Example 27, 2-(((3R)-1-(2-hydroxypropanoyl)pyrrolidin-3-yl)oxy)-5-(2-(4-morpholinophenyl)-1H-pyrrolo[2,3-b]pyridin-4-yl)benzonitrile] | 13.4 | 6.54
2 | N#Cc1cc(-c2ccnc3[nH]c(-c4ccc(N5CCOCC5)cc4)cc23)ccc1F [Example 58, 2-fluoro-5-(2-(4-morpholinophenyl)-1H-pyrrolo[2,3-b]pyridin-4-yl)benzonitrile] | > 1000 | 6.06
3 | COc1cc(-c2cc3c(-c4ccc(OC5CCNCC5)c(C#N)c4)ncnc3[nH]2)ccc1N1CCOCC1 [Example 122, 5-(6-(3-methoxy-4-morpholinophenyl)-7H-pyrrolo[2,3-d]pyrimidin-4-yl)-2-(piperidin-4-yloxy)benzonitrile] | 115 | 21.2
4 | N#Cc1cc(-c2ccnc3[nH]c(-c4cccc(N5CCOCC5)c4)cc23)ccc1OC1CCOCC1 [Example 78, 5-(2-(3-morpholinophenyl)-1H-pyrrolo[2,3-b]pyridin-4-yl)-2-((tetrahydro-2H-pyran-4-yl)oxy)benzonitrile] | 40.1 | 25.5
5 | Cc1noc(C)c1-c1cc2c(-c3ccc(OC4CCOCC4)c(C#N)c3)ccnc2[nH]1 [Example 216, 5-(2-(3,5-dimethylisoxazol-4-yl)-1H-pyrrolo[2,3-b]pyridin-4-yl)-2-((tetrahydro-2H-pyran-4-yl)oxy)benzonitrile] | 121 | 67.6
6 | CC(C)NC(=O)c1cc2c(-c3ccc(OC4CCOCC4)c(C#N)c3)ccnc2[nH]1 [Example 60, 4-(3-cyano-4-((tetrahydro-2H-pyran-4-yl)oxy)phenyl)-N-isopropyl-1H-pyrrolo[2,3-b]pyridine-2-carboxamide] | 44.5 | 63.8
7 | CC(C)(O)c1ccc(-c2cc3c(-c4ccc(O[C@@H]5CCNC5)c(C#N)c4)ccnc3[nH]2)cc1 [Example 151, (R)-5-(2-(4-(2-hydroxypropan-2-yl)phenyl)-1H-pyrrolo[2,3-b]pyridin-4-yl)-2-(pyrrolidin-3-yloxy)benzonitrile] | 120 | 43
8 | N#Cc1cc(-c2ncnc3[nH]c(-c4ccc(N5CCOCC5)nc4)nc23)ccc1OC1CCOCC1 [Example 243, 5-(8-(6-morpholinopyridin-3-yl)-9H-purin-6-yl)-2-((tetrahydro-2H-pyran-4-yl)oxy)benzonitrile] | 1000 | 11.6
9 | CS(=O)(=O)N1CCN(c2ccc(-c3cc4c(-c5ccc(OC6CCOCC6)c(C#N)c5)ccnc4[nH]3)cc2)CC1 [Example 55, 5-(2-(4-(4-(methylsulfonyl)piperazin-1-yl)phenyl)-1H-pyrrolo[2,3-b]pyridin-4-yl)-2-((tetrahydro-2H-pyran-4-yl)oxy)benzonitrile] | > 1000 | 2.84
10 | N#Cc1cc(-c2ncnc3[nH]c(-c4ccc(C5CCN(CC(F)(F)F)CC5)cc4)nc23)ccc1OC1CCN(C=O)CC1 [Example 259, 2-((1-formylpiperidin-4-yl)oxy)-5-(8-(4-(1-(2,2,2-trifluoroethyl)piperidin-4-yl)phenyl)-9H-purin-6-yl)benzonitrile] | 45.5 | 12.2
11 | N#CCC(=O)N1CCC(Oc2ccc(-c3ccnc4[nH]c(-c5ccc(N6CCOCC6)cc5)cc34)cc2C#N)CC1 [Example 20, 2-((1-(2-cyanoacetyl)piperidin-4-yl)oxy)-5-(2-(4-morpholinophenyl)-1H-pyrrolo[2,3-b]pyridin-4-yl)benzonitrile] | 27.5 | 9.25
12 | N#Cc1cc(-c2ncnc3[nH]c(-c4ccc(N5CCOCC5)c(F)c4)cc23)ccc1OC1CCOCC1 [Example 156, 5-(6-(3-fluoro-4-morpholinophenyl)-7H-pyrrolo[2,3-d]pyrimidin-4-yl)-2-((tetrahydro-2H-pyran-4-yl)oxy)benzonitrile] | 14.3 | 2.78

Further lines, results first:

Row | IC50 (IKKε) [nM] | IC50 (TBK1) [nM] | Structure (SMILES)
13 | 7.51 | 4.59 | N#CCC(=O)N1CC[C@@H](Oc2ccc(-c3ccnc4[nH]c(-c5ccc(N6CCOCC6)cc5)nc34)cc2C#N)C1 [Example 303, (R)-2-((1-(2-cyanoacetyl)pyrrolidin-3-yl)oxy)-5-(2-(4-morpholinophenyl)-3H-imidazo[4,5-b]pyridin-7-yl)benzonitrile]
14 | 0.815 | 0.883 | CN1CCN(c2ccc(-c3nc4c(-c5ccc(OC6CCN(C(=O)CO)CC6)c(C#N)c5)ncnc4[nH]3)cc2)CC1 [Example 251, 2-((1-(2-hydroxyacetyl)piperidin-4-yl)oxy)-5-(8-(4-(4-methylpiperazin-1-yl)phenyl)-9H-purin-6-yl)benzonitrile]
15 | 5.09 | 2.17 | COC(=O)c1ccc(-c2cc3c(-c4ccc(OC5CCN(C(=O)CO)CC5)c(C#N)c4)ncnc3[nH]2)cc1 [Example 159, Methyl 4-(4-(3-cyano-4-((1-(2-hydroxyacetyl)piperidin-4-yl)oxy)phenyl)-7H-pyrrolo[2,3-d]pyrimidin-6-yl)benzoate]
16 | 6.84 | 3.43 | N#Cc1cc(-c2ccnc3[nH]c(-c4ccc(N5CCOCC5)cc4)cc23)ncc1OC1CCOCC1 [Example 26, 2-(2-(4-morpholinophenyl)-1H-pyrrolo[2,3-b]pyridin-4-yl)-5-((tetrahydro-2H-pyran-4-yl)oxy)isonicotinonitrile]
17 | 1.41 | 2.38 | N#Cc1cc(-c2ccnc3[nH]c(-c4cnn(C5CNC5)c4)cc23)ccc1OC1CCOCC1 [Example 9, 5-(2-(1-(azetidin-3-yl)-1H-pyrazol-4-yl)-1H-pyrrolo[2,3-b]pyridin-4-yl)-2-((tetrahydro-2H-pyran-4-yl)oxy)benzonitrile]
18 | 8.46 | 1.69 | CC1(C)C(=O)Nc2cc(-c3cc4c(-c5ccc(OC6CCOCC6)c(C#N)c5)ncnc4[nH]3)ccc21 [Example 188, 5-(6-(3,3-dimethyl-2-oxoindolin-6-yl)-7H-pyrrolo[2,3-d]pyrimidin-4-yl)-2-((tetrahydro-2H-pyran-4-yl)oxy)benzonitrile]
19 | 4.96 | 1.62 | N#Cc1cc(-c2ncnc3[nH]c(-c4ccc(C(=O)N5CCOCC5)cc4)cc23)ccc1OC1CCOCC1 [Example 186, 5-(6-(4-(morpholine-4-carbonyl)phenyl)-7H-pyrrolo[2,3-d]pyrimidin-4-yl)-2-((tetrahydro-2H-pyran-4-yl)oxy)benzonitrile]
20 | 1.43 | 0.849 | N#Cc1cc(-c2ncnc3[nH]c(-c4ccc(N5CCN(C6COC6)CC5)cc4)cc23)ccc1OC1CCN(C(=O)CO)CC1 [Example 157, 2-((1-(2-hydroxyacetyl)piperidin-4-yl)oxy)-5-(6-(4-(4-(oxetan-3-yl)piperazin-1-yl)phenyl)-7H-pyrrolo[2,3-d]pyrimidin-4-yl)benzonitrile]
21 | 1.74 | 1.22 | N#Cc1cc(-c2ccnc3[nH]c(-c4cnn(C5CCNCC5)c4)cc23)ccc1OC1CCOCC1 [Example 10, 5-(2-(1-(piperidin-4-yl)-1H-pyrazol-4-yl)-1H-pyrrolo[2,3-b]pyridin-4-yl)-2-((tetrahydro-2H-pyran-4-yl)oxy)benzonitrile]
22 | 13.2 | 4.8 | COC(C)(C)c1ccc(-c2cc3c(-c4cc(C#N)c(OC5CCOCC5)cn4)ccnc3[nH]2)cc1 [Example 169, 2-(2-(4-(2-Methoxypropan-2-yl)phenyl)-1H-pyrrolo[2,3-b]pyridin-4-yl)-5-((tetrahydro-2H-pyran-4-yl)oxy)isonicotinonitrile]
